Assay results from article PMC9002018, “The Antimicrobial Peptide MPX Can Kill Staphylococcus aureus, Reduce Biofilm Formation, and Effectively Treat Bacterial Skin Infections in Mice” (Frontiers in Veterinary Science, 2022).
Where no end group is shown, it is not given here.

Legend:
S. aureus ATCC 25923 [1] = assay: Agar diffusion test of antibacterial activity; type: cell-based, Staphylococcus aureus; details: 1 mg/mL MPX, 20 μL per well, overnight at 37°C; sterile water control had no zone
Method: The agar diffusion test was used to detect the antibacterial effect of MPX on S. aureus ATCC 25923. S. aureus ATCC 25923 was cultured overnight, and the supernatant was discarded by centrifugation. The bacteria were washed with sterile PBS, and resuspended in a smaller volume to concentrate the cells. Next, 50 μL of the bacterial solution was pipetted into 15 mL of agar and shaken gently to mix. The plate was poured, a puncher was used to make holes after the agar medium had solidified and 20 μL of 1 mg/mL MPX was added to the wells. Sterile water was used as a control. The plates were incubated overnight at 37°C and the results were observed.

S. aureus ATCC 25923 [2] = assay: Time-killing curve (OD600 and plate counting); type: cell-based, Staphylococcus aureus; details: 37°C
Method: S. aureus was cultivated, the OD600 of the bacterial solution was adjusted to approximately 1.0, and MPX (1×MIC, 4×MIC) was added. In addition, sterile water was used as a control. The samples were incubated with shaking at 37°C. The OD600 value of the bacterial solution was measured every 1 h, and plate counting was performed at the same time to obtain the antibacterial time-killing curve of MPX against S. aureus ATCC 25923 ([15]).

S. aureus [3] = assay: Stability to salt ions, pH, temperature and repeated freezing and thawing, read by agar diffusion; type: physicochemical, Staphylococcus aureus; details: n = 3
Method: […] Solutions with different pH values were prepared with HCl and NaOH, producing pH values of 4, 5, 6, 7, 8, 9, 10, and MPX was incubated in these solutions for 30 min. MPX solutions were also incubated at different temperatures for 30 min (0, 25, 50, 75, and 100°C). A 1 mg/mL MPX solution was repeatedly frozen and thawed 0, 2, 4, 6, 8, 10, and 12 times. Ten microlitres of each of the peptide solutions treated as described above was collected, and the changes in the antimicrobial activity of the AMPs were detected by the agar diffusion assay.

proteinase K = proteinase K (Parengyodontium album, UniProt P06873); assay: Protease stability assay with proteinase K, read by agar diffusion; type: in vitro ADME; details: MPX 1.3 μM, 37°C, 30 min
Method: (§1) An MPX protease stability assay was performed in the following manner. MPX (1.3 μM) was mixed with equal volumes of proteinase K and trypsin at different concentrations. After incubating at 37°C for 30 min, the samples were incubated in a boiling water bath for 5 min to stop the protease reaction. The protease stability of MPX was detected by the agar diffusion assay.

trypsin = assay: Protease stability assay with trypsin, read by agar diffusion; type: in vitro ADME; details: MPX 1.3 μM, 37°C, 30 min
Method: as §1

S. aureus ATCC 25923 [4] = assay: BCA protein assay of bacterial supernatant (protein leakage); type: cell-based, Staphylococcus aureus; details: MPX (1×MIC, 4×MIC) for 5 min, BCA kit, P < 0.01, n = 3
Method: S. aureus was cultured overnight, washed and resuspended in sterile PBS. MPX (1×MIC, 4×MIC) was added to the bacterial solution. Sterile water was added as a control. A peptide-only group was a negative control. The mixture was allowed to stand for 5 min, and the supernatant was collected after centrifugation. The effect of MPX on the permeability of S. aureus ATCC 25923 for protein was analyzed according to the instructions of the BCA kit.

S. aureus ATCC 25923 [5] = assay: NPN uptake (membrane integrity); type: cell-based, Staphylococcus aureus; details: MPX 0.02 μM (1×MIC), NPN 10 μM, ex 350 nm / em 420 nm, 0–10 min; comparator ampicillin 50 μg/mL
Method: S. aureus ATCC 25923 was cultured overnight in a 96-well plate. An NPN solution was added to a final concentration of 10 μM. The solutions were mixed well and incubated for 20 min. MPX (1×MIC, 4×MIC) was added to the wells. Sterile water was used as the control, and ampicillin (Amp) ([…]/50 μg/mL) was used as the positive control. The excitation wavelength was 350 nm, the emission wavelength was 420 nm, and the fluorescence intensity was detected by a microplate reader ([13]).

S. aureus ATCC 25923 [6] = assay: DiSC3-5 assay for membrane potential; type: cell-based, Staphylococcus aureus; details: MPX 1×MIC
Method: Overnight-cultured S. aureus ATCC 25923 was centrifuged and resuspended in sterile PBS. A DiSC3-5 solution was added to a final concentration of 1 μM. The cells were incubated in the dark for 20 min. MPX (1×MIC, 2×MIC and 4×MIC) was added. Sterile water was used as the control, and AMP ([…]/50 μg/mL) was used as the positive control. The excitation wavelength was 622 nm, the emission wavelength was 670 nm, and the fluorescence intensity was detected by a microplate reader.

S. aureus [7] = assay: Propidium iodide uptake (fluorescence microscopy); type: cell-based, Staphylococcus aureus; details: MPX 4×MIC for 0.5 h, compared with group without peptide
Method: S. aureus was centrifuged, washed, and resuspended in sterile PBS. MPX (4×MIC) was added to the bacterial solution. The bacteria were cultured with shaking at 37°C and then centrifuged and resuspended in PBS solution. The cells were incubated with propidium iodide (PI) stain for 10 min in the dark. The suspension was fixed on a clean glass slide and observed with a fluorescence microscope.

[8] = tested on: S. aureus ATCC 25923 biofilm; assay: Crystal violet assay of biofilm formation; type: cell-based, Staphylococcus aureus; details: MPX 0.5×MIC, 24 h at 37°C, p < 0.01, n = 3
Method: An overnight culture of S. aureus was inoculated into a 96-well polystyrene microtiter plate at a ratio of 1%. MPX (0.25×MIC, 0.5×MIC and 1×MIC) was added to the wells. Sterile water was used as a control. The plates were incubated at 37°C for 24 h. The microplates were then washed 3 times with sterile PBS, and the cells were fixed with 70% methanol for 30 min. Then, the cells were stained with 1% Hucker crystal violet staining solution at room temperature for 5 min. The dyeing solution was aspirated, and the cells were rinsed with water until no color remained. Images were acquired after drying. Then, 100 μL of a 70% ethanol solution was added to each well to dissolve the residual dye, and a microplate reader was used to measure the absorbance at OD570 nm ([16]).

[9] = tested on: S. aureus ATCC 25923 biofilm; assay: Biofilm observation by SEM and confocal laser microscopy (SYTO 9/PI); type: cell-based, Staphylococcus aureus; details: MPX 4×MIC added to 24 h biofilm
Method: S. aureus ATCC 25923 was cultivated as described above. After culturing in a 37°C incubator for 24 h, MPX (final concentration: 4×MIC) was added to the sample. […] S. aureus was washed 3 times with 0.85% NaCl to remove nucleic acids and other medium components. A LIVE/DEAD BacLight Bacterial Viability L-7012 Kit (Molecular Probes, Eugene, OR, USA), containing two component dyes (SYTO 9 and PI in a 1:1 mixture) in solution, was used prior to microscopy and quantitative assays according to the test instructions. A total of 3 μL of the dye mixture was added to each well, the wells were incubated at room temperature in the dark for 15 min, and the bacterial survival in the biofilm was observed by confocal laser microscopy.
A sterile slides were placed in 6-well cell culture plates and bacteria were allowed to grow naturally on the slides to form a biofilm. Overnight culture broth and fresh broth were added at a volume ratio of 1:100, and incubated at 37°C for 24 h. Different final concentrations of MPX (1×MIC, 4×MIC) were added, incubation was continued. Then, a 2.5% glutaraldehyde solution was added to each well, and the cells were fixed at room temperature for 30 min. The plate was rinsed 3 times with PBS for 10 min each time. Gradient dehydration was performed with increasing concentrations of an ethanol solution (30, 50, 70, 80, 90, 95, and 100%). […]

S. aureus ATCC 25923 [10] = assay: Electron microscopy (SEM, TEM) of bacterial morphology; type: cell-based, Staphylococcus aureus
Method: A sterile slides were placed in 6-well cell culture plates and bacteria were allowed to grow naturally on the slides to form a biofilm. Overnight culture broth and fresh broth were added at a volume ratio of 1:100, and incubated at 37°C for 24 h. Different final concentrations of MPX (1×MIC, 4×MIC) were added, incubation was continued. Then, a 2.5% glutaraldehyde solution was added to each well, and the cells were fixed at room temperature for 30 min. The plate was rinsed 3 times with PBS for 10 min each time. Gradient dehydration was performed with increasing concentrations of an ethanol solution (30, 50, 70, 80, 90, 95, and 100%). After ion spray gold coating, biofilm formation was observed by scanning electron microscopy (SEM) ([17]).
Transmission electron microscopy (TEM) was used to detect the bacterial structure changes after MPX acted on S. aureus ATCC 25923. S. aureus was cultured overnight. MPX was added to different final concentrations. The cells were incubated with shaking at 37°C for 2 h, and then sodium phosphotungstate was used for negative staining. The effect of AMPs on S. aureus was observed. Centrifugation, fixation, dehydration, soaking, embedding and polymerization, sectioning and staining of the culture were performed. Finally, a transmission electron microscope was used to observe the results.

A. pleuropneumoniae = details: previous experiment of the same laboratory; cited from earlier work
From the text: S. aureus can cause a wide range of infections, which can lead to organ failure and death in severe cases. It is one of the most common pathogens in communities and hospitals worldwide. The emergence and rapid spread of methicillin-resistant S. aureus strains have produced great challenges for clinical treatment. According to reports, patients with methicillin-resistant S. aureus infection have an increased clinical risk, especially an increased risk of mortality ([18]). Therefore, we must strengthen the prevention of MDR S. aureus infection, find effective alternatives to antibiotics, and ide ...

Chain of proteinase K (P06873 106-384, species assumed): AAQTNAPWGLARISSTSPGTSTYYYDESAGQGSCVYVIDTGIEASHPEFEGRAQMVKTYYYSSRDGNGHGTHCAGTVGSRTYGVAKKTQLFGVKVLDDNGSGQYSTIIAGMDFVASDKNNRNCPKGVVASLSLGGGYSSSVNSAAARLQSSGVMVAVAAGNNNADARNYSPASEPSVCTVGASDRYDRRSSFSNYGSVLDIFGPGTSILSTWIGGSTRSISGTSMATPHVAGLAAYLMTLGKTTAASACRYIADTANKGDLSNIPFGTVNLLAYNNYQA

INWKGIAAMAKKLL-NH2 [MPX]
zone of inhibition (agar diffusion) (S. aureus ATCC 25923 [1]): produced a zone of inhibition
inhibition in killing curve (S. aureus ATCC 25923 [2]; MPX 1×MIC, within 5 h): relatively stable inhibition
bacteria killed (killing curve) (S. aureus ATCC 25923 [2]; MPX 4×MIC, within 1 h, start OD600 approx. 1.0, plate counting, n = 3): 99.9%
effect of temperature on antibacterial activity of MPX (thermal stability) (S. aureus [3]; 0, 25, 50, 75 and 100°C for 30 min): basically no effect
effect of repeated freezing and thawing on antimicrobial activity of MPX (S. aureus [3]; 1 mg/mL MPX frozen and thawed 0–12 times): did not change significantly
effect of CaCl2 on antibacterial activity of MPX (S. aureus [3]; CaCl2 50, 100, 150, 200 and 250 mmol/mL, incubated 30 min): no significant effect
effect of KCl on antibacterial activity of MPX (S. aureus [3]; KCl 50, 100, 150, 200 and 250 mmol/mL, incubated 30 min): little effect
effect of MgCl2 on antibacterial activity of MPX (S. aureus [3]; MgCl2 50, 100, 150, 200 and 250 mmol/mL, incubated 30 min): no significant effect
effect of NaCl on antibacterial activity of MPX (S. aureus [3]; NaCl 50, 100, 150, 200 and 250 mmol/mL, incubated 30 min): little effect
effect of pH on MPX activity (S. aureus [3]; pH 4–10 (HCl/NaOH), incubated 30 min): basically no effect
effect of proteinase K on antibacterial activity (proteinase K; 40 μg/mL proteinase K, agar diffusion, n = 3): significantly reduced
residual antibacterial activity after proteinase K (proteinase K; 100 μg/mL proteinase K, equal volumes, agar diffusion vs S. aureus ATCC 25923, n = 3): 66.3%
effect of trypsin on antibacterial activity (trypsin; 20 μg/mL trypsin, agar diffusion, n = 3): significantly reduce
residual antibacterial activity after trypsin (trypsin; 100 μg/mL trypsin, equal volumes, agar diffusion vs S. aureus ATCC 25923, n = 3): 19.6%
total protein content of bacterial culture supernatant (S. aureus ATCC 25923 [4]): significantly higher than that of the control group
NPN fluorescence intensity (membrane integrity) (S. aureus ATCC 25923 [5]): significantly higher than that of the control group and the antibiotic AMP treatment group
time to membrane depolarization (DiSC3-5) (S. aureus ATCC 25923 [6]; 4×MIC, DiSC3-5 1 μM, ex 622 nm / em 670 nm): ≤ 10 s
DiSC3-5 fluorescence intensity compared with antibiotic AMP (S. aureus ATCC 25923 [6]; comparator AMP 50 μg/mL): higher than that produced by the antibiotic AMP
number of PI-stained bacteria (S. aureus [7]): significantly increased
S. aureus biofilm formation (crystal violet, OD570) [8]: significantly reduced
number of dead bacteria in the S. aureus biofilm (confocal, SYTO 9/PI) [9]: significantly increased
bacterial morphology (SEM/TEM) (S. aureus ATCC 25923 [10]; MPX 1×MIC): shrink and leak cell contents
cell membrane of S. aureus (TEM) (S. aureus ATCC 25923 [10]; MPX 4×MIC, 2 h at 37°C): severely damaged
effect of Ca2+ and Mg2+ on killing effect of MPX on A. pleuropneumoniae (A. pleuropneumoniae): significantly inhibit
